# Data reported in patent US20100184815A1 (priority 2008, published 2010).
# Tests used:
# Format in all cases: cell-based
# [1] = molecular target: T1, Gal-4 hPPARβ/δ (Homo sapiens, UniProt Q03181); test: Gal4-hPPARδ transient transfection reporter assay in Cos cells; details: luciferase reporter, 24 hours with compound, scale 1-5, read-out: Gal-4 hPPAR β/δ EC50 (scaled number)
# T1 construct: Plasmids pGal4-hPPARα, pGal4-hPPARγ, pGal4-hPPARδ and pG5-TK-pGL3 were constructed as previously described by Staels, Bart, et al., Nature 1998 Jun; 25
# T1 sequence (Q03181 171-441 limits assumed): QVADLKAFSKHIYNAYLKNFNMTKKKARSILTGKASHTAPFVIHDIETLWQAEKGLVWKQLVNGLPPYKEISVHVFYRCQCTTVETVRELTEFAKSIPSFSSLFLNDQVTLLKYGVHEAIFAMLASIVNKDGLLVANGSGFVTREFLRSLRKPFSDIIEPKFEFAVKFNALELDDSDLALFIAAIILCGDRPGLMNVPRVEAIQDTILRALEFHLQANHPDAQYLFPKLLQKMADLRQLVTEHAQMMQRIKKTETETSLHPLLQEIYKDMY
# How it was run: (§1)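 Cos cells transiently co-transfected with Gal4-hPPAR expression plasmid, pG5-TK-pGL3 luciferase reporter and β-galactosidase control, then treated 24 h with increasing compound concentrations in DMEM containing 0.2% FCS. Luciferase normalised to β-galactosidase; EC50 from curve fit, at least three experiments.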
# [2] = molecular target: T2, Gal-4 hPPARγ (Homo sapiens, UniProt P37231); test: Gal4-hPPARγ transient transfection reporter assay in Cos cells; details: luciferase reporter, 24 hours with compound, scale 1-5, read-out: Gal-4 hPPAR γ EC50 (scaled number)
# T2 construct: Plasmids pGal4-hPPARα, pGal4-hPPARγ, pGal4-hPPARδ and pG5-TK-pGL3 were constructed as previously described by Staels, Bart, et al., Nature 1998 Jun; 25
# T2 sequence (P37231 238-505 limits assumed): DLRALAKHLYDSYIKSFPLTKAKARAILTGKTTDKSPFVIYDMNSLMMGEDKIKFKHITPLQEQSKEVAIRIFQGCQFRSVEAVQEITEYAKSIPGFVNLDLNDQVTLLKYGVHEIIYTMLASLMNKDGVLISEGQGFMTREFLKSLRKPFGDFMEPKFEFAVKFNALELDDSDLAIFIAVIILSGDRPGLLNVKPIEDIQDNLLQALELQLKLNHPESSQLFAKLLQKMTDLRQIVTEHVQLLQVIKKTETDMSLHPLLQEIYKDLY
# How it was run: as §1
# [3] = molecular target: T3, Full Length hPPARα (Homo sapiens, UniProt Q07869); test: Full length hPPARα transfection assay; details: full length receptor; read-out: Full Length hPPAR α EC50 (scaled number)
# T3 construct: Full Length; expressed in transfected cells; host or cells: Cos cells
# T3 sequence (Q07869 1-468): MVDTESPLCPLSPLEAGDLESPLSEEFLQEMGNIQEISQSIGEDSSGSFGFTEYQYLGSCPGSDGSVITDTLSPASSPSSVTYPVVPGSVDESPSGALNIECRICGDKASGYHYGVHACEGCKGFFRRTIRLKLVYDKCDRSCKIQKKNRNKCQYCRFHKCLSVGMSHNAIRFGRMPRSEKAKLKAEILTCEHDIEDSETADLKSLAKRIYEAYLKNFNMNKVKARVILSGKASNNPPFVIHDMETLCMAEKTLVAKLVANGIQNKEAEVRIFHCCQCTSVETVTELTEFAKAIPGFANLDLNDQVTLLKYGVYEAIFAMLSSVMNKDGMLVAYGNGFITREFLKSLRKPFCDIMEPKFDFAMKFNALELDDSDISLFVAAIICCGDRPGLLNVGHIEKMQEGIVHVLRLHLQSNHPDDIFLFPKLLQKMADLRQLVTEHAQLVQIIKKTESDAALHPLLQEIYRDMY
# Description: (§2) Transient transfection assays. Cos cells were seeded in 60-mm dishes at a density of 5.5×10^5 cells/dish in Dulbecco's modified Eagle's medium (DMEM) supplemented with 10% fetal calf serum (FCS) and incubated at 37° C. for 24 hours before transfection. Cells were transfected in Opti-MEM (Gibco; Invitrogen, Carlsbad, Calif.) without FCS for 3 hours at 37° C., using polyethylenimine, with reporter and expression plasmids. The plasmid pBluescript (Stratagene, La Jolla, Calif.) was used as carrier DNA to set the final amount of DNA to 5.5 μg/dish. The pCMV-b-galactosidase expression plasmid was cotransfected as a control for transfection efficiency. Transfection was stopped by the addition of DMEM supplemented with 10% FCS, and cells were then incubated at 37° C. After 16 hours, cells were trypsinized and seeded in 96-well plates at the density of 2×10^4 cells/well and incubated for 6 hours in 10% FCS-containing DMEM. Cells were then incubated for 24 hours in DMEM containing 0.2% FCS and increasing concentrations of the compound tested or vehicle (DMSO). At the end of the experiment, cells were washed once with ice-cold PBS, lysed and the luciferase and b-galactosidase assays were performed in a luminometer and spectrophotomer. Transfection efficiencies were normalized with the b-galactosidase activity assay. Half-maximal effective concentration (EC50) was estimated using Prism software (GraphPad). All transfection experiments were performed at least three times.
# (§3) In the following tables, proprietary compound EC50 values for hPPAR α, β, δ and γ are shown. The EC50 value is the concentration of a drug that induces a response halfway between the baseline and maximum, and is commonly used as a measure of drug potency. EC50 values are reported on a scale of 1 through 5, wherein the value scale is defined for each receptor as follows: […]
# [4] = molecular target: T4, Full Length hPPARγ (Homo sapiens, UniProt P37231); test: Full length hPPARγ transfection assay; details: full length receptor; scale 1-5; read-out: Full Length hPPAR γ EC50 (scaled number)
# T4 construct: Full Length; expressed in transfected cells; host or cells: Cos cells
# T4 sequence (P37231 1-505): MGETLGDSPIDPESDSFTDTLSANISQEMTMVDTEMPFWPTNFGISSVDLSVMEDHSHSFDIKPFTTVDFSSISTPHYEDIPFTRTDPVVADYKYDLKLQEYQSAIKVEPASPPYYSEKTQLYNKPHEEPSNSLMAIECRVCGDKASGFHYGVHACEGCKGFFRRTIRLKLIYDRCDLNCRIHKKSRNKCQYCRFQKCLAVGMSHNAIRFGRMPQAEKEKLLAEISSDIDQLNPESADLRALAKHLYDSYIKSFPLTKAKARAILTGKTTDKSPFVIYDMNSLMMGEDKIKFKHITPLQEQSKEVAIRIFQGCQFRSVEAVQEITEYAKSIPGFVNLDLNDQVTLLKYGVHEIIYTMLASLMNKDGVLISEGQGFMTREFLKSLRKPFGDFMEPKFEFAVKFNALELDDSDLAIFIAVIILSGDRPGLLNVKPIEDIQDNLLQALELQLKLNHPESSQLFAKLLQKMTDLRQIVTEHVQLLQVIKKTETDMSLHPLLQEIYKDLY
# Description: as §2, §3
# [5] = molecular target: T5, Full Length hPPARβ/δ (Homo sapiens, UniProt Q03181); test: Full length hPPARβ/δ transfection assay; details: full length receptor; scale 1-5; read-out: Full Length hPPAR β/δ EC50 (scaled number)
# T5 construct: Full Length; expressed in transfected cells; host or cells: Cos cells
# T5 sequence (Q03181 1-441): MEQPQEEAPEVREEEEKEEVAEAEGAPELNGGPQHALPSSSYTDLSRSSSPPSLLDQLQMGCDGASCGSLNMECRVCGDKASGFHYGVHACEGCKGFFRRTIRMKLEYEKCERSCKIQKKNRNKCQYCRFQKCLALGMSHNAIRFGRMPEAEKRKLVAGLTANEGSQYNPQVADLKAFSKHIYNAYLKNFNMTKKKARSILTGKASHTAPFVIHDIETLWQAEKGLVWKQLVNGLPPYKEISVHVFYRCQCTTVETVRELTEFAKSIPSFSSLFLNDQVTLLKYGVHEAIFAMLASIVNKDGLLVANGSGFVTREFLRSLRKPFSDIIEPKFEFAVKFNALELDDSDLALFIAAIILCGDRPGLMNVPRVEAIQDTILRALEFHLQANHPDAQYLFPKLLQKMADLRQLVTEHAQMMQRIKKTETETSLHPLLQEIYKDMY
# Description: as §2, §3
# [6] = molecular target: T6, Gal-4 hPPARα (Homo sapiens, UniProt Q07869); test: Gal4-hPPARα transient transfection reporter assay in Cos cells; details: luciferase reporter, 24 hours with compound, scale 1-5, read-out: Gal-4 hPPAR α EC50 (scaled number)
# T6 construct: Plasmids pGal4-hPPARα, pGal4-hPPARγ, pGal4-hPPARδ and pG5-TK-pGL3 were constructed as previously described by Staels, Bart, et al., Nature 1998 Jun; 25
# T6 sequence (Q07869 200-468 limits assumed): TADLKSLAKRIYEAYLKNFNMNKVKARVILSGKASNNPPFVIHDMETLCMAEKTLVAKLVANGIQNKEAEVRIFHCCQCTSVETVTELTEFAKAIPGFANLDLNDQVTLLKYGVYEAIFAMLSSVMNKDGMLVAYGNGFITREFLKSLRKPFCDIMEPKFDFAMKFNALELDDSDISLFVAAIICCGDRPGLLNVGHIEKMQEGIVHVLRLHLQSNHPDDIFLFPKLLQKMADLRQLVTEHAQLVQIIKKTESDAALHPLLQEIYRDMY
# How it was run: as §1
EC50 [1],EC50 [2],EC50 [3],EC50 [4],EC50 [5],EC50 [6],Structure (SMILES)
> 1000 nM,> 1000 nM,< 1 nM,51 to 200 nM,> 1000 nM,1 to 50 nM,"Cn1nc(-c2ccccc2)cc1COC(=O)c1ccc(SC(C)(C)C(=O)O)cc1 [Compound 1, 2-methyl-2-(4-(((1-methyl-3-phenyl-1H-pyrazol-5-yl)methoxy)carbonyl)phenylthio)propanoic acid]"
> 1000 nM,> 1000 nM,1 to 50 nM,,,201 to 999 nM,"Cn1nc(-c2ccccc2)cc1COC(=O)c1ccc(OC(C)(C)C(=O)O)cc1 [Compound 2, 2-methyl-2-(4-(((1-methyl-3-phenyl-1H-pyrazol-5-yl)methoxy)carbonyl)phenoxy)propanoic acid]"
> 1000 nM,> 1000 nM,1 to 50 nM,201 to 999 nM,,51 to 200 nM,"CC(C)c1ccc(-n2cc(COC(=O)c3ccc(SC(C)(C)C(=O)O)cc3)nn2)cc1 [Compound 56, 2-(4-(((1-(4-isopropylphenyl)-1H-1,2,3-triazol-4-yl)methoxy)carbonyl)phenylthio)-2-methylpropanoic acid]"
> 1000 nM,> 1000 nM,51 to 200 nM,,,51 to 200 nM,"Cc1ccc(Cn2nncc2COC(=O)c2ccc(SC(C)(C)C(=O)O)cc2)cc1 [Compound 62, 2-methyl-2-(4-(((1-(4-methylbenzyl)-1H-1,2,3-triazol-5-yl)methoxy)carbonyl)phenylthio)propanoic acid]"
> 1000 nM,> 1000 nM,51 to 200 nM,,,51 to 200 nM,"COc1ccc(Cn2cc(COC(=O)c3ccc(SC(C)(C)C(=O)O)cc3)nn2)cc1 [Compound 68, 2-(4-(((1-(4-methoxybenzyl)-1H-1,2,3-triazol-4-yl)methoxy)carbonyl)phenylthio)-2-methylpropanoic acid]"
> 1000 nM,> 1000 nM,< 1 nM,,,1 to 50 nM,"Cc1ccc(Cn2cc(C(C)OC(=O)c3ccc(SC(C)(C)C(=O)O)cc3)nn2)cc1 (stereo not shown) [Compound 81, 2-methyl-2-(4-((1-(1-(4-methylbenzyl)-1H-1,2,3-triazol-4-yl)ethoxy)carbonyl)phenylthio)propanoic acid]"
> 1000 nM,> 1000 nM,1 to 50 nM,,,51 to 200 nM,"CC(C)(Sc1ccc(C(=O)OCCn2cc(-c3ccc(C(C)(C)C)cc3)nn2)cc1)C(=O)O [Compound 89, 2-(4-((2-(4-(4-tert-butylphenyl)-1H-1,2,3-triazol-1-yl)ethoxy)carbonyl)phenylthio)-2-methylpropanoic acid]"
> 1000 nM,> 1000 nM,51 to 200 nM,> 1000 nM,,201 to 999 nM,"CCCn1c(COC(=O)c2ccc(OC(C)(C)C(=O)O)cc2)nn(Cc2ccc(OC(F)(F)F)cc2)c1=O [Compound 168, 2-methyl-2-(4-(((5-oxo-4-propyl-1-(4-(trifluoromethoxy)benzyl)-4,5-dihydro-1H-1,2,4-triazol-3-yl)methoxy)carbonyl)phenoxy)propanoic acid]"
> 1000 nM,> 1000 nM,< 1 nM,,,201 to 999 nM,"CCCn1c(COC(=O)c2ccc(OC(C)(C)C(=O)O)c(OC)c2)nn(Cc2ccc(C(C)(C)C)cc2)c1=O [Compound 180, 2-(4-(((1-(4-tert-butylbenzyl)-5-oxo-4-propyl-4,5-dihydro-1H-1,2,4-triazol-3-yl)methoxy)carbonyl)-2-methoxyphenoxy)-2-methylpropanoic acid]"
> 1000 nM,> 1000 nM,< 1 nM,,,1 to 50 nM,"CCCCCCn1c(COC(=O)c2ccc(OC(C)(C)C(=O)O)c(OC)c2)nn(Cc2ccc(C(C)(C)C)cc2)c1=O [Compound 185, 2-(4-(((1-(4-tert-butylbenzyl)-4-hexyl-5-oxo-4,5-dihydro-1H-1,2,4-triazol-3-yl)methoxy)carbonyl)-2-methoxyphenoxy)-2-methylpropanoic acid]"
> 1000 nM,51 to 200 nM,< 1 nM,51 to 200 nM,,< 1 nM,"CCCCCCCn1c(COC(=O)c2ccc(OC(C)(C)C(=O)O)c(OC)c2)nn(Cc2ccc(C(C)(C)C)cc2)c1=O [Compound 212, 2-(4-(((1-(4-tert-butylbenzyl)-4-heptyl-5-oxo-4,5-dihydro-1H-1,2,4-triazol-3-yl)methoxy)carbonyl)-2-methoxyphenoxy)-2-methylpropanoic acid]"
